# Tested on: peptide-specific IgG in sera of cancer patients and healthy donors
# Experiment: Measurement of anti-peptide IgG in plasma by LUMINEX multiplexed flow cytometric assay
# Assay type: binding, human
# Description: The levels of anti-peptide immunoglobulin G (IgG) were measured by the LUMINEX™ system (multiplexed flow cytometric assay) as previously reported (Komatsu N, Shichijo S, Nakagawa M, Itoh K. New multiplexed flow cytometric assay to measure anti-peptide antibody: a novel tool for monitoring immune responses to peptides used for immunization. Scand J Clin Lab Invest 2004; 64:1-11). In brief, plasma was incubated with 25 μl of peptide-coupled color-coded beads for 2 hr at room temperature on a plate shaker. After incubation, the mixture was washed with a vacuum manifold apparatus and incubated with 100 μl of biotinylated goat anti-human IgG (γ chain-specific)(BA-3080, Vector Laboratories, Burlingame, Calif., USA) for 1 h at room temperature. The plate was then washed, followed by the addition of 100 μl of streptavidin-PE (S-866, Molecular Probes, Eugene, Oreg., USA) into wells, and was incubated for 30 min at room temperature on a plate shaker. The bound beads were washed three times followed by the addition of 100 μl of Tween-PBS into each well. Fifty μl of sample was detected using the LUMINEX™ system (multiplexed flow cytometric assay). To confirm the specificity of IgG to a SCCA peptide, sample plasma was cultured in plates coated with a corresponding SCCA peptide, or with an irrelevant SCCA peptide. After the operation was repeated three times, the levels of the corresponding SCCA peptide-specific IgG in the resulting supernatant were determined by the LUMINEX™ system (multiplexed flow cytometric assay).
# These 9 SCCA-derived peptides were screened based on their ability to be recognized by IgG in cancer patients. Peptide-specific IgG was measured by a multiplexed flow cytometric assay (LUMINEX™ (multiplexed flow cytometric assay)). The plasma samples were derived from 35 uterine cervical SCC patients, 10 breast adenocarcinoma patients, 10 pancreatic adenocarcinoma patients, 10 gastric adenocarcinoma, and 6 colon adenocarcinoma patients. The level of fluorescence intensity was judged to be significant when exceeded 100 at an 1/100 dilution.
sequence,measurement,setting,value
"EYLDAIKKF (SCCA 118-126 peptide) [SCCA-derived peptide, position 118-126]",Total: healthy donors with significant peptide-reactive IgG / donors tested,"10 healthy donors, significant when fluorescence intensity exceeded 100 at 1/100 dilution",2/10
same,Total: cancer patients with significant peptide-reactive IgG / patients tested,"71 cancer patients, significant when fluorescence intensity exceeded 100 at 1/100 dilution",7/71
same,Fluorescence intesity,"serum of Breast Ca. patient #36, 1:100 dilution",5
same,Fluorescence intesity,"serum of Breast Ca. patient #37, 1:100 dilution",23
same,Fluorescence intesity,"serum of Breast Ca. patient #38, 1:100 dilution",1
same,Fluorescence intesity,"serum of Breast Ca. patient #39, 1:100 dilution",1
same,Fluorescence intesity,"serum of Breast Ca. patient #40, 1:100 dilution",0
same,Fluorescence intesity,"serum of Breast Ca. patient #41, 1:100 dilution",123
same,Fluorescence intesity,"serum of Breast Ca. patient #42, 1:100 dilution",14
same,Fluorescence intesity,"serum of Breast Ca. patient #43, 1:100 dilution",7
same,Fluorescence intesity,"serum of Breast Ca. patient #44, 1:100 dilution",0
same,Fluorescence intesity,"serum of Breast Ca. patient #45, 1:100 dilution",18
same,Fluorescence intesity,"serum of Colon Ca. patient #66, 1:100 dilution",2
same,Fluorescence intesity,"serum of Colon Ca. patient #67, 1:100 dilution",0
same,Fluorescence intesity,"serum of Colon Ca. patient #68, 1:100 dilution",0
same,Fluorescence intesity,"serum of Colon Ca. patient #69, 1:100 dilution",0
same,Fluorescence intesity,"serum of Colon Ca. patient #70, 1:100 dilution",0
same,Fluorescence intesity,"serum of Colon Ca. patient #71, 1:100 dilution",17
same,Fluorescence intesity,"serum of Gastric Ca. patient #56, 1:100 dilution",0
same,Fluorescence intesity,"serum of Gastric Ca. patient #57, 1:100 dilution",0
same,Fluorescence intesity,"serum of Gastric Ca. patient #58, 1:100 dilution",0
same,Fluorescence intesity,"serum of Gastric Ca. patient #59, 1:100 dilution",21
same,Fluorescence intesity,"serum of Gastric Ca. patient #60, 1:100 dilution",0
same,Fluorescence intesity,"serum of Gastric Ca. patient #61, 1:100 dilution",5
same,Fluorescence intesity,"serum of Gastric Ca. patient #62, 1:100 dilution",0
same,Fluorescence intesity,"serum of Gastric Ca. patient #63, 1:100 dilution",0
same,Fluorescence intesity,"serum of Gastric Ca. patient #64, 1:100 dilution",2
same,Fluorescence intesity,"serum of Gastric Ca. patient #65, 1:100 dilution",0
same,Fluorescence intesity,"serum of Healthy Donor #1, 1:100 dilution",0
same,Fluorescence intesity,"serum of Healthy Donor #2, 1:100 dilution",47
same,Fluorescence intesity,"serum of Healthy Donor #3, 1:100 dilution",0
same,Fluorescence intesity,"serum of Healthy Donor #4, 1:100 dilution",0
same,Fluorescence intesity,"serum of Healthy Donor #5, 1:100 dilution",0
same,Fluorescence intesity,"serum of Healthy Donor #6, 1:100 dilution",0
same,Fluorescence intesity,"serum of Healthy Donor #7, 1:100 dilution",0
same,Fluorescence intesity,"serum of Healthy Donor #8, 1:100 dilution",324
same,Fluorescence intesity,"serum of Healthy Donor #9, 1:100 dilution",37
same,Fluorescence intesity,"serum of Healthy Donor #10, 1:100 dilution",0
same,Fluorescence intesity,"serum of Pancreas Ca. patient #46, 1:100 dilution",0
same,Fluorescence intesity,"serum of Pancreas Ca. patient #47, 1:100 dilution",0
same,Fluorescence intesity,"serum of Pancreas Ca. patient #48, 1:100 dilution",404
same,Fluorescence intesity,"serum of Pancreas Ca. patient #49, 1:100 dilution",0
same,Fluorescence intesity,"serum of Pancreas Ca. patient #50, 1:100 dilution",0
same,Fluorescence intesity,"serum of Pancreas Ca. patient #51, 1:100 dilution",0
same,Fluorescence intesity,"serum of Pancreas Ca. patient #52, 1:100 dilution",79
same,Fluorescence intesity,"serum of Pancreas Ca. patient #53, 1:100 dilution",0
same,Fluorescence intesity,"serum of Pancreas Ca. patient #54, 1:100 dilution",0
same,Fluorescence intesity,"serum of Pancreas Ca. patient #55, 1:100 dilution",0
same,Fluorescence intesity,"serum of Uterine cervical Ca. patient #1, 1:100 dilution",0
same,Fluorescence intesity,"serum of Uterine cervical Ca. patient #2, 1:100 dilution",0
same,Fluorescence intesity,"serum of Uterine cervical Ca. patient #3, 1:100 dilution",0
same,Fluorescence intesity,"serum of Uterine cervical Ca. patient #4, 1:100 dilution",0
same,Fluorescence intesity,"serum of Uterine cervical Ca. patient #5, 1:100 dilution",0
same,Fluorescence intesity,"serum of Uterine cervical Ca. patient #6, 1:100 dilution",507
same,Fluorescence intesity,"serum of Uterine cervical Ca. patient #7, 1:100 dilution",11
same,Fluorescence intesity,"serum of Uterine cervical Ca. patient #8, 1:100 dilution",24
same,Fluorescence intesity,"serum of Uterine cervical Ca. patient #9, 1:100 dilution",82
same,Fluorescence intesity,"serum of Uterine cervical Ca. patient #10, 1:100 dilution",13
same,Fluorescence intesity,"serum of Uterine cervical Ca. patient #11, 1:100 dilution",20
same,Fluorescence intesity,"serum of Uterine cervical Ca. patient #12, 1:100 dilution",37
same,Fluorescence intesity,"serum of Uterine cervical Ca. patient #13, 1:100 dilution",20
same,Fluorescence intesity,"serum of Uterine cervical Ca. patient #14, 1:100 dilution",16
same,Fluorescence intesity,"serum of Uterine cervical Ca. patient #15, 1:100 dilution",87
same,Fluorescence intesity,"serum of Uterine cervical Ca. patient #16, 1:100 dilution",179
same,Fluorescence intesity,"serum of Uterine cervical Ca. patient #17, 1:100 dilution",45
same,Fluorescence intesity,"serum of Uterine cervical Ca. patient #18, 1:100 dilution",42
same,Fluorescence intesity,"serum of Uterine cervical Ca. patient #19, 1:100 dilution",41
same,Fluorescence intesity,"serum of Uterine cervical Ca. patient #20, 1:100 dilution",100
same,Fluorescence intesity,"serum of Uterine cervical Ca. patient #21, 1:100 dilution",20
same,Fluorescence intesity,"serum of Uterine cervical Ca. patient #22, 1:100 dilution",20
same,Fluorescence intesity,"serum of Uterine cervical Ca. patient #23, 1:100 dilution",44
same,Fluorescence intesity,"serum of Uterine cervical Ca. patient #24, 1:100 dilution",1169
same,Fluorescence intesity,"serum of Uterine cervical Ca. patient #25, 1:100 dilution",15
same,Fluorescence intesity,"serum of Uterine cervical Ca. patient #26, 1:100 dilution",106
same,Fluorescence intesity,"serum of Uterine cervical Ca. patient #27, 1:100 dilution",28
same,Fluorescence intesity,"serum of Uterine cervical Ca. patient #28, 1:100 dilution",71
same,Fluorescence intesity,"serum of Uterine cervical Ca. patient #29, 1:100 dilution",13
same,Fluorescence intesity,"serum of Uterine cervical Ca. patient #30, 1:100 dilution",25
same,Fluorescence intesity,"serum of Uterine cervical Ca. patient #31, 1:100 dilution",101
same,Fluorescence intesity,"serum of Uterine cervical Ca. patient #32, 1:100 dilution",16
same,Fluorescence intesity,"serum of Uterine cervical Ca. patient #33, 1:100 dilution",114
same,Fluorescence intesity,"serum of Uterine cervical Ca. patient #34, 1:100 dilution",16
same,Fluorescence intesity,"serum of Uterine cervical Ca. patient #35, 1:100 dilution",19
